For experiment [1], the target named is T1, Beta-3 adrenergic receptor (Homo sapiens, UniProt P13945). In words: stimulation of adenylyl cyclase activity in CHO-beta-3 adrenergic receptor cell membrane; expressed as maximal cyclase activity as a fraction of (-)-isoproterenol (IA = 1). Format: functional.
Target sequence in this assay (P13945 whole entry, looked up): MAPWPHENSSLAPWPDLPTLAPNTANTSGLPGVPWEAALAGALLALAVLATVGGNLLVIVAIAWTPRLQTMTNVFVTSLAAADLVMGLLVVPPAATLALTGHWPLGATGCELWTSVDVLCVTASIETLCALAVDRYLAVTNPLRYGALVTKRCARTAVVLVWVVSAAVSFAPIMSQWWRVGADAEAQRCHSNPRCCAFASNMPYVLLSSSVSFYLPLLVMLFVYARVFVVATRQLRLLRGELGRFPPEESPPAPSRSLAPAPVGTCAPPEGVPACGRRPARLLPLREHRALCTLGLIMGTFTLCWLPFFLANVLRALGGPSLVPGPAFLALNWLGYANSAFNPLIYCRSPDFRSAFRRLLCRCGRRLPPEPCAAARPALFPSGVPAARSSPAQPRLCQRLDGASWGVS
In experiment [2] the target is Beta-2 adrenergic receptor (Homo sapiens, UniProt P07550). In words: biochemical.
Description: Compound was tested for its binding affinity against beta2 adrenergic receptor in CHO cell membrane using [125I]iodocyanopindolol as the radioligand.
The target of experiment [3] is T1, Beta-3 adrenergic receptor. In words: Compound was tested for its binding affinity against beta3 adrenergic receptor in CHO cell membrane using [125I]iodocyanopindolol as the radioligand. Format: cell membranes.
Target sequence in this assay (P13945 whole entry): as the sequence (P13945 whole entry, looked up) above
Experiment [4] has as its target Beta-1 adrenergic receptor (Homo sapiens, UniProt P08588). In words: Compound was tested for its binding affinity against Beta-1 adrenergic receptor in CHO cell membrane using [125I]iodocyanopindolol as the radioligand. The format is cell membranes.
Experiment [5] deals with T1, Beta-3 adrenergic receptor. The experiment can be described thus: Compound was tested for its ability to stimulate adenylyl cyclase activity in CHO Beta-3 adrenergic receptor cell membrane. Format: functional.
Target sequence in this assay (P13945 whole entry): as the sequence (P13945 whole entry, looked up) above
Experiment [6] addresses T1, Beta-3 adrenergic receptor. The experiment can be described thus: Compound was tested for its ability to stimulate adenylyl cyclase activity in CHO-beta-3 adrenergic receptor cell membrane. Format: functional.
Target sequence in this assay (P13945 whole entry): as the sequence (P13945 whole entry, looked up) above

Active and inactive are the calls of the source. The rule behind the calls is not given here.

Chain of Beta-2 adrenergic receptor (P07550 whole entry): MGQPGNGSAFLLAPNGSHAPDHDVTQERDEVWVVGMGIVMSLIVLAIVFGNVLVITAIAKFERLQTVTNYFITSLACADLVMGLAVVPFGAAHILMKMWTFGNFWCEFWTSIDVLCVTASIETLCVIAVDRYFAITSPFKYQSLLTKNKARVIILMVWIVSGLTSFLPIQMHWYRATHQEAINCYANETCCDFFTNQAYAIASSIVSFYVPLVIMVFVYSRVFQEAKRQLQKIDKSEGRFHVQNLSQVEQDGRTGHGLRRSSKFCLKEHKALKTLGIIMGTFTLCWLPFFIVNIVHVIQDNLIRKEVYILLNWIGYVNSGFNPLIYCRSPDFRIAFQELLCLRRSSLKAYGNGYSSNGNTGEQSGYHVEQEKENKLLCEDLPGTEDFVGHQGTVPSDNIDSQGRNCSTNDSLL
Chain of Beta-1 adrenergic receptor (P08588 whole entry): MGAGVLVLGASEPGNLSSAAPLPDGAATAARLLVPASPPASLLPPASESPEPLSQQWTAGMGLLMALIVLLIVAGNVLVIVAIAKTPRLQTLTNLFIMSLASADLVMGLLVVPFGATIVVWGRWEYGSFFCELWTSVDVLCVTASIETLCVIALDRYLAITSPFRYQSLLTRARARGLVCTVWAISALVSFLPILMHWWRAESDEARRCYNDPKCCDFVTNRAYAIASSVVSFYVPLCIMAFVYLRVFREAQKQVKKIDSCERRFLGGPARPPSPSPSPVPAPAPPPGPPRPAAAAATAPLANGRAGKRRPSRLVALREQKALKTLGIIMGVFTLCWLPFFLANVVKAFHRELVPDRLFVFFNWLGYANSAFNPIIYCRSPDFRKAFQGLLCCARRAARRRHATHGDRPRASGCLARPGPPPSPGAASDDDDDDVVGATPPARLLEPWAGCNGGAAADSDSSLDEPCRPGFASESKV

As usually defined, the Ki is the dissociation constant of the complex between target and ligand, obtained from inhibition or displacement. Read a low Ki as a stronger hold on the target. The term EC50 denotes the concentration needed to bring the measured effect to its halfway point. High values mean weaker potency, low ones greater potency. For the compound `C[C@H](Cc1ncc(CCC(=O)O)s1)NCC(O)c1cccc(Cl)c1` (stereo partly specified), the IA in experiment [1] came out at 0.39. For the same compound, the results for the inhibition constant Ki in experiment [2], in experiment [3] and in experiment [4] were 11400 nM, 146000 nM and 58100 nM, respectively. For the same compound, in experiment [5], the EC50 turned out to be 27600 nM.

Consider `C[C@H](Cc1ncc(CCCCC(=O)O)s1)NC[C@H](O)COc1ccccc1`, for which the IA result in experiment [1] is “inactive”. The figures for the Ki in experiment [2], in experiment [3] and in experiment [4] were 150 nM, 390 nM and 440 nM, respectively.

As to `C[C@H](Cc1ncc(CCCC(=O)O)s1)NC[C@H](O)COc1ccccc1`, the IA in experiment [1] came out at 0.72. Besides, the Ki in experiment [2] was 1600 nM; in experiment [3] it was 760 nM; in experiment [4] it was 1300 nM. This compound also had an EC50 in experiment [5] of 630 nM.

Consider `C[C@H](Cc1ncc(CCC(=O)O)s1)NC[C@H](O)COc1ccccc1`, for which the IA in experiment [1] was determined as 0.56. Also, the Ki in experiment [2] was 1230 nM; in experiment [3], 3530 nM; in experiment [4], 3440 nM. For the same compound, the response in experiment [5] was half-maximal at 2760 nM (EC50).

Turning to `C[C@H](Cc1ncc(CCCC(=O)O)s1)NCC(O)c1cccc(Cl)c1` (stereo partly specified), the inhibition constant Ki in experiment [2] is 13900 nM; in experiment [3], 36500 nM; in experiment [4], 6400 nM.

On to `C[C@H](Cc1ccc(OCC(=O)O)cc1)NC[C@H](O)c1cccc(Cl)c1`, for which the IA in experiment [1] was determined as 0.67.

In the case of `O=C(O)COc1ccc(OCCNC[C@H](O)COc2ccccc2)cc1`, the IA in experiment [1] was found to be 0.71. The same compound registered an inhibition constant Ki in experiment [3] of 520 nM. This compound displayed an EC50 in experiment [6] of 550 nM.

Values taken from ChEMBL document CHEMBL1129171, “BMS-187257, a potent, selective, and novel heterocyclic 3 adrenergic receptor agonist” (Bioorg Med Chem Lett, 1996).
